Key:
guinea pig = test: PAF-induced bronchospasm in the guinea pig; type: in vivo
mouse = test: protection against PAF-induced lethal systemic shock in the mouse; type: in vivo; conditions: oral dose of 5 mg/kg, PAF 100 μg/kg
Text: Haemostas, 56(1) 40-44 (1986) and that of protection against lethal systemic shock in the mouse, which is described in J. Pharmacol. Exp. Ther 247(2) 617-23 (1988).

rabbit platelets = test: inhibition of the aggregation of rabbit platelets induced by the PAF-acether; type: cell-based; conditions: Oryctolagus cuniculus, Platelet, PAF introduced into the medium at 4×10^-10 M, read-out: IC50 (concentration inhibiting 50% of the aggregation induced by the PAF)
Text: Thus in vitro it is possible to study the inhibition of the aggregation of rabbit platelets induced by the PAF-acether according to the method described in Thrombosis Research 41 211-226 (1986). […] Therap.

## CC(C)c1cc(C(C)C)c(-c2csc(N(CCN(C)C)Cc3cccnc3)n2)c(C(C)C)c1 [Example 2]
Guinea pig; IV dose of 1 mg/kg
  duration of complete inhibition of the bronchospasm: more than 96 hours
Guinea pig; oral dose of 3 mg/kg
  duration of complete inhibition of the bronchospasm: more than 96 hours

## Cc1cc(C)c(-c2csc(N(CCN(C)C)Cc3cccnc3)n2)c(C)c1 [Example 14, 2-(N-[2-N',N'-dimethylaminoethyl]N-[3-pyridylmethyl]amino)4-(2,4,6-trimethylphenyl)thiazole]
mouse
  protection from the lethal systemic shock induced by the PAF: protect the mouse from the lethal systemic shock

## Cc1sc(N(CCN(C)C)Cc2cccnc2)nc1-c1ccc(Cl)cc1Cl [Example 50, 2-(N-[2-N',N'-dimethylaminoethyl]N-[3-pyridylmethyl]amino)4-(2,4-dichlorophenyl) 5-methyl thiazole]
mouse
  protection from the lethal systemic shock induced by the PAF: protect the mouse from the lethal systemic shock

## Cc1oc(N(CCN(C)C)Cc2cccnc2)nc1-c1ccc(Cl)cc1Cl [Example 79, 2(N-[2-N',N'-dimethylaminoethyl]N-[3-pyridylmethyl]amino) 4-(2,4-dichlorophenyl)5-methyl oxazole]
mouse
  protection from the lethal systemic shock induced by the PAF: protect the mouse from the lethal systemic shock

## CC(C)c1cc(C(C)C)c(-c2nc(N(CCN(C)C)Cc3cccnc3)sc2Br)c(C(C)C)c1 [Example 90, 2-(N-[2-N',N'-dimethylaminoethyl]N-[3-pyridylmethyl]amino) 5-bromo 4-(2,4,6-triisopropylphenyl) thiazole]
mouse
  protection from the lethal systemic shock induced by the PAF: protect the mouse from the lethal systemic shock

## CC(C)c1cc(C(C)C)c(-c2nc(N(CCN(C)C)Cc3cccnc3)sc2Cl)c(C(C)C)c1 [Example 91, 2-(N-[2-N',N'-dimethylaminoethyl]N-[3-pyridylmethyl]amino) 5-chloro 4-(2,4,6-triisopropylphenyl)thiazole]
mouse
  protection from the lethal systemic shock induced by the PAF: protect the mouse from the lethal systemic shock

## Cc1nnc2n1-c1sc(CCC(=O)N3CCOCC3)cc1C(c1ccccc1Cl)=NC2 [WEB 2086]
Rabbit platelets
  IC50: 0.05 µM
